Measurements reported in the NIST ThermoML archive (doi:10.1016/j.jct.2004.06.009).
± gives the expanded uncertainty stated by the source.

Assay: molar heat capacity at constant pressure
Settings: 101.33 kPa, Crystal 2

## CC12CC3CC(C1)CC(C)(C3)C2 [1,3-dimethyladamantane]
8.24 K
  molar heat capacity at constant pressure: 2.062 ± 0.11 J/K/mol
8.72 K
  molar heat capacity at constant pressure: 2.425 ± 0.12 J/K/mol
9.2 K
  molar heat capacity at constant pressure: 2.838 ± 0.13 J/K/mol
9.68 K
  molar heat capacity at constant pressure: 3.291 ± 0.14 J/K/mol
10.16 K
  molar heat capacity at constant pressure: 3.758 ± 0.16 J/K/mol
10.73 K
  molar heat capacity at constant pressure: 4.336 ± 0.17 J/K/mol
11.38 K
  molar heat capacity at constant pressure: 5.1 ± 0.19 J/K/mol
12.04 K
  molar heat capacity at constant pressure: 5.875 ± 0.21 J/K/mol
12.71 K
  molar heat capacity at constant pressure: 6.75 ± 0.24 J/K/mol
13.36 K
  molar heat capacity at constant pressure: 7.626 ± 0.26 J/K/mol
14.03 K
  molar heat capacity at constant pressure: 8.543 ± 0.28 J/K/mol
14.69 K
  molar heat capacity at constant pressure: 9.462 ± 0.3 J/K/mol
15.35 K
  molar heat capacity at constant pressure: 10.41 ± 0.32 J/K/mol
16.02 K
  molar heat capacity at constant pressure: 11.41 ± 0.34 J/K/mol
16.68 K
  molar heat capacity at constant pressure: 12.45 ± 0.36 J/K/mol
17.35 K
  molar heat capacity at constant pressure: 13.38 ± 0.37 J/K/mol
18.02 K
  molar heat capacity at constant pressure: 14.36 ± 0.39 J/K/mol
18.7 K
  molar heat capacity at constant pressure: 15.27 ± 0.4 J/K/mol
19.36 K
  molar heat capacity at constant pressure: 16.17 ± 0.41 J/K/mol
20.03 K
  molar heat capacity at constant pressure: 17.19 ± 0.43 J/K/mol
20.92 K
  molar heat capacity at constant pressure: 18.43 ± 0.44 J/K/mol
22.01 K
  molar heat capacity at constant pressure: 19.87 ± 0.45 J/K/mol
23.09 K
  molar heat capacity at constant pressure: 21.29 ± 0.46 J/K/mol
24.18 K
  molar heat capacity at constant pressure: 22.59 ± 0.46 J/K/mol
25.26 K
  molar heat capacity at constant pressure: 23.98 ± 0.47 J/K/mol
26.35 K
  molar heat capacity at constant pressure: 25.2 ± 0.46 J/K/mol
27.44 K
  molar heat capacity at constant pressure: 26.35 ± 0.46 J/K/mol
30.7 K
  molar heat capacity at constant pressure: 29.56 ± 0.4 J/K/mol
31.79 K
  molar heat capacity at constant pressure: 30.56 ± 0.41 J/K/mol
32.87 K
  molar heat capacity at constant pressure: 31.44 ± 0.41 J/K/mol
33.96 K
  molar heat capacity at constant pressure: 32.41 ± 0.42 J/K/mol
35.04 K
  molar heat capacity at constant pressure: 33.24 ± 0.43 J/K/mol
36.12 K
  molar heat capacity at constant pressure: 34.11 ± 0.43 J/K/mol
37.2 K
  molar heat capacity at constant pressure: 34.83 ± 0.44 J/K/mol
38.29 K
  molar heat capacity at constant pressure: 35.57 ± 0.45 J/K/mol
39.37 K
  molar heat capacity at constant pressure: 36.35 ± 0.45 J/K/mol
40.44 K
  molar heat capacity at constant pressure: 37.09 ± 0.46 J/K/mol
41.52 K
  molar heat capacity at constant pressure: 37.79 ± 0.46 J/K/mol
42.59 K
  molar heat capacity at constant pressure: 38.45 ± 0.47 J/K/mol
43.67 K
  molar heat capacity at constant pressure: 39.15 ± 0.47 J/K/mol
44.74 K
  molar heat capacity at constant pressure: 39.94 ± 0.48 J/K/mol
45.82 K
  molar heat capacity at constant pressure: 40.58 ± 0.48 J/K/mol
46.91 K
  molar heat capacity at constant pressure: 41.26 ± 0.49 J/K/mol
49.08 K
  molar heat capacity at constant pressure: 42.53 ± 0.5 J/K/mol
50.15 K
  molar heat capacity at constant pressure: 43.17 ± 0.51 J/K/mol
51.21 K
  molar heat capacity at constant pressure: 43.97 ± 0.51 J/K/mol
52.28 K
  molar heat capacity at constant pressure: 44.55 ± 0.52 J/K/mol
53.34 K
  molar heat capacity at constant pressure: 45.28 ± 0.52 J/K/mol
54.4 K
  molar heat capacity at constant pressure: 45.93 ± 0.53 J/K/mol
55.46 K
  molar heat capacity at constant pressure: 46.84 ± 0.54 J/K/mol
56.52 K
  molar heat capacity at constant pressure: 47.67 ± 0.54 J/K/mol
58.46 K
  molar heat capacity at constant pressure: 49.49 ± 0.56 J/K/mol
60.51 K
  molar heat capacity at constant pressure: 51.1 ± 0.57 J/K/mol
62.53 K
  molar heat capacity at constant pressure: 52.46 ± 0.58 J/K/mol
63 K
  molar heat capacity at constant pressure: 52.93 ± 0.58 J/K/mol
63.91 K
  molar heat capacity at constant pressure: 53.57 ± 0.59 J/K/mol
64.83 K
  molar heat capacity at constant pressure: 54.06 ± 0.59 J/K/mol
65.75 K
  molar heat capacity at constant pressure: 54.71 ± 0.6 J/K/mol
66.66 K
  molar heat capacity at constant pressure: 55.08 ± 0.6 J/K/mol
67.58 K
  molar heat capacity at constant pressure: 55.66 ± 0.6 J/K/mol
68.49 K
  molar heat capacity at constant pressure: 56.24 ± 0.61 J/K/mol
69.41 K
  molar heat capacity at constant pressure: 57.05 ± 0.62 J/K/mol
71.4 K
  molar heat capacity at constant pressure: 57.87 ± 0.62 J/K/mol
73.43 K
  molar heat capacity at constant pressure: 58.84 ± 0.63 J/K/mol
75.49 K
  molar heat capacity at constant pressure: 59.92 ± 0.64 J/K/mol
77.45 K
  molar heat capacity at constant pressure: 60.94 ± 0.65 J/K/mol
79.6 K
  molar heat capacity at constant pressure: 62.15 ± 0.66 J/K/mol
81.55 K
  molar heat capacity at constant pressure: 63.11 ± 0.67 J/K/mol
82.51 K
  molar heat capacity at constant pressure: 63.18 ± 0.67 J/K/mol
83.54 K
  molar heat capacity at constant pressure: 64.04 ± 0.67 J/K/mol
84.58 K
  molar heat capacity at constant pressure: 64.38 ± 0.68 J/K/mol
85.62 K
  molar heat capacity at constant pressure: 65.28 ± 0.68 J/K/mol
86.66 K
  molar heat capacity at constant pressure: 66.25 ± 0.69 J/K/mol
87.69 K
  molar heat capacity at constant pressure: 66.5 ± 0.69 J/K/mol
88.73 K
  molar heat capacity at constant pressure: 67.15 ± 0.7 J/K/mol
89.76 K
  molar heat capacity at constant pressure: 68.17 ± 0.71 J/K/mol
90.79 K
  molar heat capacity at constant pressure: 68.78 ± 1.1 J/K/mol
91.82 K
  molar heat capacity at constant pressure: 69.62 ± 1.1 J/K/mol
92.85 K
  molar heat capacity at constant pressure: 70.65 ± 1.1 J/K/mol
93.88 K
  molar heat capacity at constant pressure: 71.07 ± 1.1 J/K/mol
94.91 K
  molar heat capacity at constant pressure: 71.83 ± 1.1 J/K/mol
95.93 K
  molar heat capacity at constant pressure: 72.84 ± 1.1 J/K/mol
96.96 K
  molar heat capacity at constant pressure: 73.52 ± 1.1 J/K/mol
97.98 K
  molar heat capacity at constant pressure: 74.02 ± 1.1 J/K/mol
99.01 K
  molar heat capacity at constant pressure: 74.65 ± 1.1 J/K/mol
100.04 K
  molar heat capacity at constant pressure: 75.78 ± 1.1 J/K/mol
101.06 K
  molar heat capacity at constant pressure: 77.14 ± 1.1 J/K/mol
102.08 K
  molar heat capacity at constant pressure: 77.29 ± 1.1 J/K/mol
103.1 K
  molar heat capacity at constant pressure: 78.16 ± 1.1 J/K/mol
104.13 K
  molar heat capacity at constant pressure: 78.65 ± 1.1 J/K/mol
105.15 K
  molar heat capacity at constant pressure: 79.24 ± 1.1 J/K/mol
106.17 K
  molar heat capacity at constant pressure: 79.77 ± 1.1 J/K/mol
107.18 K
  molar heat capacity at constant pressure: 80.75 ± 1.1 J/K/mol
108.2 K
  molar heat capacity at constant pressure: 81.19 ± 1.1 J/K/mol
109.21 K
  molar heat capacity at constant pressure: 82.31 ± 1.1 J/K/mol
110.22 K
  molar heat capacity at constant pressure: 83.3 ± 1.1 J/K/mol
111.24 K
  molar heat capacity at constant pressure: 83.76 ± 1.1 J/K/mol
112.25 K
  molar heat capacity at constant pressure: 84.74 ± 1.1 J/K/mol
113.26 K
  molar heat capacity at constant pressure: 85.56 ± 1.1 J/K/mol
114.27 K
  molar heat capacity at constant pressure: 86.06 ± 1.1 J/K/mol
115.29 K
  molar heat capacity at constant pressure: 86.71 ± 1.1 J/K/mol
116.3 K
  molar heat capacity at constant pressure: 87.61 ± 1.2 J/K/mol
117.31 K
  molar heat capacity at constant pressure: 88.53 ± 1.2 J/K/mol
118.32 K
  molar heat capacity at constant pressure: 89.31 ± 1.2 J/K/mol
119.33 K
  molar heat capacity at constant pressure: 90.06 ± 1.2 J/K/mol
120.34 K
  molar heat capacity at constant pressure: 90.8 ± 1.2 J/K/mol
121.35 K
  molar heat capacity at constant pressure: 91.66 ± 1.2 J/K/mol
122.36 K
  molar heat capacity at constant pressure: 92.56 ± 1.2 J/K/mol
123.36 K
  molar heat capacity at constant pressure: 93.09 ± 1.2 J/K/mol
124.37 K
  molar heat capacity at constant pressure: 94.23 ± 1.2 J/K/mol
125.38 K
  molar heat capacity at constant pressure: 94.72 ± 1.2 J/K/mol
126.39 K
  molar heat capacity at constant pressure: 95.77 ± 1.2 J/K/mol
127.4 K
  molar heat capacity at constant pressure: 96.32 ± 1.2 J/K/mol
128.4 K
  molar heat capacity at constant pressure: 97.15 ± 1.2 J/K/mol
129.4 K
  molar heat capacity at constant pressure: 97.61 ± 1.2 J/K/mol
130.4 K
  molar heat capacity at constant pressure: 98.84 ± 1.2 J/K/mol
131.41 K
  molar heat capacity at constant pressure: 99.23 ± 1.2 J/K/mol
132.41 K
  molar heat capacity at constant pressure: 99.74 ± 1.2 J/K/mol
133.41 K
  molar heat capacity at constant pressure: 100.92 ± 1.2 J/K/mol
135.41 K
  molar heat capacity at constant pressure: 102.12 ± 1.2 J/K/mol
136.41 K
  molar heat capacity at constant pressure: 102.85 ± 1.2 J/K/mol
137.41 K
  molar heat capacity at constant pressure: 103.66 ± 1.2 J/K/mol
138.41 K
  molar heat capacity at constant pressure: 104.15 ± 1.2 J/K/mol
139.41 K
  molar heat capacity at constant pressure: 105.02 ± 1.2 J/K/mol
140.41 K
  molar heat capacity at constant pressure: 106 ± 1.2 J/K/mol
141.4 K
  molar heat capacity at constant pressure: 106.56 ± 1.2 J/K/mol
142.4 K
  molar heat capacity at constant pressure: 107.72 ± 1.2 J/K/mol
143.4 K
  molar heat capacity at constant pressure: 107.89 ± 1.2 J/K/mol
144.4 K
  molar heat capacity at constant pressure: 108.44 ± 1.2 J/K/mol
145.37 K
  molar heat capacity at constant pressure: 109.47 ± 1.2 J/K/mol
146.37 K
  molar heat capacity at constant pressure: 110.32 ± 1.2 J/K/mol
147.36 K
  molar heat capacity at constant pressure: 111.05 ± 1.2 J/K/mol
148.36 K
  molar heat capacity at constant pressure: 112.04 ± 1.2 J/K/mol
149.35 K
  molar heat capacity at constant pressure: 112.85 ± 1.2 J/K/mol
150.34 K
  molar heat capacity at constant pressure: 113.58 ± 1.2 J/K/mol
151.33 K
  molar heat capacity at constant pressure: 114.44 ± 1.3 J/K/mol
153.32 K
  molar heat capacity at constant pressure: 115.43 ± 1.3 J/K/mol
154.31 K
  molar heat capacity at constant pressure: 116.66 ± 1.3 J/K/mol
155.3 K
  molar heat capacity at constant pressure: 117.21 ± 1.3 J/K/mol
156.29 K
  molar heat capacity at constant pressure: 118.03 ± 1.3 J/K/mol
157.28 K
  molar heat capacity at constant pressure: 118.57 ± 1.3 J/K/mol
158.26 K
  molar heat capacity at constant pressure: 119.55 ± 1.3 J/K/mol
159.25 K
  molar heat capacity at constant pressure: 119.81 ± 1.3 J/K/mol
160.24 K
  molar heat capacity at constant pressure: 120.34 ± 1.3 J/K/mol
161.21 K
  molar heat capacity at constant pressure: 122.14 ± 1.3 J/K/mol
162.2 K
  molar heat capacity at constant pressure: 123.06 ± 1.3 J/K/mol
163.18 K
  molar heat capacity at constant pressure: 123.69 ± 1.3 J/K/mol
